# From US6787541B1, “Thieno-and furopyrimidine derivatives as A2A-receptor antagonists” (Vernalis Research Limited, priority 1999, dated 2004)
# Where a name gives a salt, the structure may show the parent alone.
# Biological target: T1, human adenosine A2A receptors expressed in HEK-293 cells (Homo sapiens, UniProt P29274)
# T1 construct: expressed in transfected cells; host or cells: HEK-293 cells
# Assay: Binding affinities at hA2A receptors, displacement of [3H]-CGS 21680
# T1 sequence (P29274 whole entry): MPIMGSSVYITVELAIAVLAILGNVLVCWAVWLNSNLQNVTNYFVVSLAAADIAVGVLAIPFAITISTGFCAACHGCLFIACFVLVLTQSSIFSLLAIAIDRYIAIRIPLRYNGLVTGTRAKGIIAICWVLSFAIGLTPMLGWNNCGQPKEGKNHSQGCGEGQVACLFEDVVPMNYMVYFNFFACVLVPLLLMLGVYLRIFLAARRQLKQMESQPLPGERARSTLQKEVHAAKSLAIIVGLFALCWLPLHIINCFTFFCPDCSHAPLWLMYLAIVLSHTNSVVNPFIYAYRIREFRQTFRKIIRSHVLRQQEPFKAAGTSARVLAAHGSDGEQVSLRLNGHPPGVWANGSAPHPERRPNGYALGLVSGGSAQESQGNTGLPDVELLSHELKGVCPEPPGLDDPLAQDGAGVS
row,Compound,Ki [µM]
1,"CSc1nc(C(=O)c2cccs2)c2scc(C)c2n1 [Example 39, 7-Methyl-2-methylthiothieno[3,2-d]pyrimidin-4-yl 2-thienylmethanone]",0.575
2,"CCCc1nc(C(=O)c2cccs2)c2sccc2n1 [Example 63, 2-n-Propylthieno[3,2-d]pyrimidin-4-yl 2-thienylmethanone]",0.037
3,"O=C(c1cccs1)c1nc(NCc2ccccn2)nc2ccsc12 [Example 95, 2-(2-Pyridylmethylamino)thieno[3,2-d]pyrimidin-4-yl 2-thienylmethanone]",0.008
4,"CC(C)(C)OC(=O)N1CCN(c2nc(C(=O)c3cccs3)c3sccc3n2)CC1 [Example 84, Tert-butyl 4-(4-(2-thienylcarbonyl)thieno[3,2-d]pyrimidin-2-yl)piperazinecarboxylate]",0.392
5,"C[C@H](CO)Nc1nc(C(=O)c2cccs2)c2sccc2n1 [Example 102, (2R)-2-(1-Hydroxy-2-propylamino)thieno[3,2-d]pyrimidin-4-yl 2-thienylmethanone]",0.002
6,"CN(CCO)c1nc(C(=O)c2cccs2)c2sccc2n1 [Example 82, 2-(N-(2-Hydroxyethyl)-N-methylamino)thieno[3,2-d]pyrimidin-4-yl 2-thienylmethanone]",0.029
7,"CNc1nc(C(=O)c2cccs2)c2sccc2n1 [Example 58, 2-Methylaminothieno[3,2-d]pyrimidin-4-yl thienylmethanone]",0.015
8,"O=C(c1cccs1)c1nc(NCCNC(=O)C2CCCCC2)nc2ccsc12 [Example 151, N-(2-(4-(2-Thienylcarbonyl)thieno[3,2-d]pyrimidin-2-yl)aminoethyl)cyclohexylcarboxamide]",0.007
9,"α-(2-Pyridyl-2-trifluoromethylthieno[3,2- d]pyrimidine-4-acetonitrile [Example 18]",0.346
10,"COC(=O)NCCNc1nc(C(=O)c2cccs2)c2sccc2n1 [Example 155, Methyl (2-(4-(2-thienylcarbonyl)thieno[3,2-d]pyrimidin-2-yl)aminoethyl)carbamate]",0.004
11,"CC(CO)Nc1nc(C(=O)c2cccs2)c2sccc2n1 (racemic) [Example 89, (2RS)-2-(1-Hydroxy-2-propylamino)thieno[3,2-d]pyrimidin-4-yl 2-thienylmethanone]",0.003
12,"C=CCNC(=O)NCCNc1nc(C(=O)c2cccs2)c2sccc2n1 [Example 159, N-Allyl-N′-(2-(4-(2-thienylcarbonyl)thieno[3,2-d]pyrimidin-2-yl)aminoethyl)urea]",0.008
13,"C[C@@H](O)CNc1nc(C(=O)c2cccs2)c2sccc2n1 [Example 103, (2R)-2-(2-Hydroxypropylamino)thieno[3,2-d]pyrimidin-4-yl 2-thienylmethanone]",0.006
14,"NCCNc1nc(C(=O)c2cccs2)c2sccc2n1 [Example 55, 2-(2-Aminoethylamino)thieno[3,2-d]pyrimidin-4-yl 2-thienylmethanone dihydrochloride]",0.078
15,"CN1CCN(c2nc(C(=O)c3cccs3)c3sccc3n2)CC1 [Example 83, 2-(4-Methylpiperazinyl)thieno[3,2-d]pyrimidin-4-yl 2-thienylmethanone]",0.863
16,"CCCc1nc(C(O)c2cccs2)c2sccc2n1 (stereo not drawn) [Example 67, 2-n-Propyl-α-(2-thienyl)thieno[3,2-d]pyrimidine-4-methanol]",0.469
17,"O=C(c1cccs1)c1nc(NCCCn2ccnc2)nc2ccsc12 [Example 104, 2-(3-(1H-Imidazol-1-yl)propylamino)thieno[3,2-d]pyrimidin-4-yl 2-thienylmethanone]",0.002
18,"CN(C)c1nc(C(=O)c2cccs2)c2scc(-c3ccco3)c2n1 [Example 79, 2-Dimethylamino-7-(2-furyl)thieno[3,2-d]pyrimidin-4-yl 2-thienylmethanone]",0.858

# Tested on: not given
# Assay: not given
row,Compound,melting point [°C]
1,"CSc1nc(C(=O)c2cccs2)c2scc(C)c2n1 [Example 39, 7-Methyl-2-methylthiothieno[3,2-d]pyrimidin-4-yl 2-thienylmethanone]",144 to 166
2,"CCCc1nc(C(=O)c2cccs2)c2sccc2n1 [Example 63, 2-n-Propylthieno[3,2-d]pyrimidin-4-yl 2-thienylmethanone]",122 to 125
3,"O=C(c1cccs1)c1nc(NCc2ccccn2)nc2ccsc12 [Example 95, 2-(2-Pyridylmethylamino)thieno[3,2-d]pyrimidin-4-yl 2-thienylmethanone]",178.6 to 179.3
